The target in this assay is T1, ABL1 Y253F (Homo sapiens, UniProt P00519, Y253F).
T1 construct: purchased Thermo Fisher Scientific (Life Technologies) SelectScreen
Description: SelectScreen Z'LYTE. In kind it is biochemical. An outline of the steps:
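NU5455 was profiled across the SelectScreen Broad panel of kinase activity and binding assays. Z'LYTE reactions such as CSF1R ran at apparent Km ATP, while the Adapta CAMK1 assay used ATP listed as 10. Values are given as percent.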

Consider one compound from paper PMC6934184, “Selective DNA-PKcs inhibition extends the therapeutic index of localized radiotherapy and chemotherapy” (The Journal of Clinical Investigation, 2019).

As usually defined, the inhibition is the relative decrease from the control value, in per cent. Read a low inhibition as little suppression. The compound `CN(C(=O)CN1CCOCC1)c1ccc2sc3c(-c4cccc5c(=O)cc(N6CC7CCC(C6)O7)oc45)cccc3c2c1` [NU5455] came in with an inhibition at 1 µM of 5.9%.
